Test results taken from US4239903A, “2-Aminotetralin derivatives and process for producing the same” (priority 1977, dated 1980).
Where a name gives a salt, the structure may show the parent alone. Read-outs that look alike come from different tables or passages of the source.

Assays:
[1] = Effect on colonic motility stimulated by neostigmine in rats; type: in vivo, rat (male STD Wistar strain); details: rat, in vivo
[2] = tested on: colonic motility stimulated by neostigmine; assay: as above; type: in vivo, rat (male STD Wistar strain); details: Rattus norvegicus, neostigmine-stimulated, dose at which inhibition was observed in 50% of rats
[3] = Acute toxicity (LD50) in rats; details: rat, in vivo
[4] = tested on: colonic contraction caused by stimulation of pelvic nerve; assay: Effect on colonic contraction caused by stimulation of pelvic nerve in anesthetized dogs; type: in vivo, dog (mongrel dogs of both sexes); details: Canis lupus familiaris, iv; for inhibition in vivo at 0.1 mg/kg: read-out: % Inhibition of Colonic Contraction; for ED50: read-out: c.ID50 (dose causing 50% inhibition of the colonic contraction by pelvic nerve stimulation)
Description: The compounds of the present invention are extremely useful as medicines particularly acting on the lower digestive tract. […] N-Ethyl-N-[4-(3,4-dimethoxybenzoyloxy)butyl]-3-(4-methoxyphenyl)-2-propylamine hydrochloride (hereinafter referred to as "mebeverine") known as an antispasmodic for the lower digestive tract was used as a reference.
The values shown in Table 1 were obtained according to the following method [as disclosed in European Journal of Pharmacology, 18, pp. 1-14 (1972)].
Mongrel dogs of both sexes weighing 8-15 kg were used.
After intravenous anesthesizing with pentobarbital in a dose of 30 mg/kg, the animals were fixed on their back and subjected to ventrotomy along the midline of the lower abdomen. After a rubber balloon filled with water was inserted into the descending colon via the anus, 100 μg/kg of each compound was injected intravenously and changes in the internal pressure of the balloon were recorded on a polygraph through a low pressure transducer. Electric stimulation (rectangular wave, 50 cps in frequency, 1 msec in duration, 4 V in voltage) was applied to the pelvic nerve for 5 seconds every three minutes. The percent inhibition of the colonic contraction was calculated according to the following relationship. [formula]
c.ID50 values were determined by the same method as was used for Table 1.

[5] = tested on: contractile response of the stomach to vagal stimulation; assay: Contractile response of the stomach to vagal stimulation in anesthetized dogs; type: in vivo, dog (mongrel dogs of both sexes); details: for ED50: Canis lupus familiaris, iv, read-out: s.ID50 (dose causing 50% inhibition of the contractile response of the stomach to vagal stimulation); for s.ID50 /c.ID50 (selectivity of antispasmodic effect): i.v., stomach vs colon
Description: The compounds of the present invention are further characterized by the following property. The compounds of the present invention have selectively stronger antispasmodic effect on the lower part of the digestive tract than on the upper part of the digestive tract, in contrast to conventional anticholinergic antispasmodics which act non-selectively on the digestive tract. The evidence for this selectivity is exemplified by the results shown for representative compounds of the present invention in Table 3. In Table 3, the s.ID50 and c.ID50 values represent the doses causing 50% inhibition of the contractile response of the stomach to vagal stimulation and 50% inhibition of the colonic contraction by pelvic nerve stimulation, respectively, in dogs. These values and their ratios (s.ID50 /c.ID50) indicate that these compounds have higher selectivity than mebeverine, as is clear from Table 3.
The determination of gastric motility was carried out according to the method described in European Journal of Pharmacology, 18, pp. 1-14 (1972).
More specifically mongrel dogs of both sexes weighing 8-15 kg were used. After anesthesizing the animals with 30 mg/kg (i.v.) of pentobarbital, the animals were fixed on their back and a midline incision was made in the upper abdomen. A rubber balloon filled with water was inserted into the stomach through an incision in the greater curvature. Changes in internal pressure of the balloon were recorded on a polygraph via a low pressure transducer. Electric stimulation (rectangular wave, 20 cps in frequency, 1 msec in duration, 8 V in voltage) was applied to the vagus nerve for 10 seconds every three minutes. The percent inhibition of the contractile response of the stomach was calculated from the relationship shown above.

[6] = 100 μg/kg, i.v., pelvic nerve stimulation, anesthetized dogs

Row | SMILES | safety margin (LD50/ED50) ([1]; po) | ED50 ([2]; iv) | ED50 ([2]; po) | LD50 ([3]; po) | inhibition in vivo at 0.1 mg/kg [4, 6] | safety margin (LD50/ED50) ([1]; iv) | LD50 ([3]; iv) | ED50 ([4]; dogs) | ED50 ([5]; dogs) | s.ID50 /c.ID50 (selectivity of antispasmodic effect) ([5]; dogs) | inhibition in vivo at 0.1 mg/kg [4] | ED50 [4] | ED50 [5]
1 | COc1ccc2c(c1)CCC(N(CCCCOC(=O)c1ccc(OC)c(OC)c1)C(C)C)C2.Cl (stereo not drawn) [Compound L, N-Isopropyl-N-[4-(3,4-dimethoxybenzoyloxy)butyl]-6-methoxy-1,2,3,4-tetrahydro-2-naphthylamine hydrochloride] | 89 | 0.173 mg/kg | 17.3 mg/kg | 1540 mg/kg |  |  |  |  |  |  |  |  | 
2 | CCN(CCCCOC(=O)c1ccc(OC)c(OC)c1)C1CCc2cccc(OC)c2C1 (stereo not drawn) [Compound K, N-Ethyl-N-[4-(3,4-dimethoxybenzoyloxy)butyl]-8-methoxy-1,2,3,4-tetrahydro-2-naphthylamine hydrochloride] |  |  |  |  | 40% |  |  |  |  |  |  |  | 
3 | CCN(CCCCOC(=O)c1ccc(OC)c(OC)c1)C1CCc2cc(OC)ccc2C1.Cl (stereo not drawn) [Compound C, N-Ethyl-N-[4-(3,4-dimethoxybenzoyloxy)butyl]-6-methoxy-1,2,3,4-tetrahydro-2-naphthylamine hydrochloride] | > 139 | 0.169 mg/kg | 14.4 mg/kg | > 2000 mg/kg | 20% | 114 | 19.3 mg/kg |  |  |  |  |  | 
4 | CCN(CCCCCCOC(=O)c1ccc(OC)c(OC)c1)C1CCc2cc(OC)c(OC)cc2C1.Cl (stereo not drawn) [Compound G, N-Ethyl-N-[6-(3,4-dimethoxybenzoyloxy)hexyl]-6,7-dimethoxy-1,2,3,4-tetrahydro-2-naphthylamine hydrochloride] | 330 | 0.02 mg/kg | 1.7 mg/kg | 561 mg/kg | 54.2% | 885 | 17.5 mg/kg |  |  |  |  |  | 
5 | CCN(CCCCOC(=O)c1ccc(OC)c(OC)c1)C1CCc2ccccc2C1 (stereo not drawn) [Compound A, N-Ethyl-N-[4-(3,4-dimethoxybenzoyloxy)butyl]-1,2,3,4-tetrahydro-2-naphthylamine hydrochloride] |  |  |  |  | 27.9% |  |  |  |  |  |  |  | 
6 | CCN(CCCCOC(=O)c1ccc(OC)c(OC)c1)C1CCc2ccc(OC)cc2C1 (stereo not drawn) [Compound H, N-Ethyl-N-[4-(3,4-dimethoxybenzoyloxy)butyl]-7-methoxy-1,2,3,4-tetrahydro-2-naphthylamine hydrochloride] |  |  |  |  | 30.9% |  |  |  |  |  |  |  | 
7 | CCN(CCCCCCOC(=O)c1ccc(OC)c(OC)c1)C1CCc2ccccc2C1.Cl (stereo not drawn) [Compound B, N-Ethyl-N-[6-(3,4-dimethoxybenzoyloxy)hexyl]-1,2,3,4-tetrahydro-2-naphthylamine hydrochloride] | > 364 | 0.086 mg/kg | 5.5 mg/kg | > 2000 mg/kg | 56% | 206 | 17.7 mg/kg |  |  |  |  |  | 
8 | CCCN(CCCCOC(=O)c1ccc(OC)c(OC)c1)C1CCc2cc(OC)ccc2C1.Cl (stereo not drawn) [Compound E, N-Propyl-N-[4-(3,4-dimethoxybenzoyloxy)butyl]-6-methoxy-1,2,3,4-tetrahydro-2-naphthylamine hydrochloride] | 41 | 0.173 mg/kg | 17.3 mg/kg | 707 mg/kg | 22.4% | 129 | 22.3 mg/kg |  |  |  |  |  | 
9 | CCN(CCCCOC(=O)c1ccc(OC)c(OC)c1)C1CCc2cc(OC)c(OC)cc2C1.Cl (stereo not drawn) [Compound F, N-Ethyl-N-[4-(3,4-dimethoxybenzoyloxy)butyl]-6,7-dimethoxy-1,2,3,4-tetrahydro-2-naphthylamine hydrochloride] | 280 | 0.025 mg/kg | 5.5 mg/kg | 1540 mg/kg | 63.8% | 648 | 16.2 mg/kg | 0.057 mg/kg | 0.266 mg/kg | 4.67 |  |  | 
10 | CCN(CCCCCCOC(=O)c1ccc(OC)c(OC)c1)C1CCc2cc(OC)ccc2C1.Cl (stereo not drawn) [Compound D, N-Ethyl-N-[6-(3,4-dimethoxybenzoyloxy)hexyl]-6-methoxy-1,2,3,4-tetrahydro-2-naphthylamine hydrochloride] | 515 | 0.046 mg/kg | 5.5 mg/kg | 2830 mg/kg | 54.7% | 767 | 35.3 mg/kg | 0.083 mg/kg | 0.614 mg/kg | 7.40 |  |  | 
11 | CCN(CCCCOC(=O)c1ccc(OC)c(OC)c1)C(C)Cc1ccc(OC)cc1.Cl (stereo not drawn) [Mebeverine, N-Ethyl-N-[4-(3,4-dimethoxybenzoyloxy)butyl]-3-(4-methoxyphenyl)-2-propylamine hydrochloride, reference compound] |  | 0.151 mg/kg | 30 mg/kg | 1540 mg/kg |  |  | 17.7 mg/kg |  |  | < 2.74 | 22% | > 0.3 mg/kg | 0.823 mg/kg
